The target of data set [1] is T1, Receptor-type tyrosine-protein kinase FLT3 (Homo sapiens, UniProt P36888).
T1 sequence (P36888 whole entry): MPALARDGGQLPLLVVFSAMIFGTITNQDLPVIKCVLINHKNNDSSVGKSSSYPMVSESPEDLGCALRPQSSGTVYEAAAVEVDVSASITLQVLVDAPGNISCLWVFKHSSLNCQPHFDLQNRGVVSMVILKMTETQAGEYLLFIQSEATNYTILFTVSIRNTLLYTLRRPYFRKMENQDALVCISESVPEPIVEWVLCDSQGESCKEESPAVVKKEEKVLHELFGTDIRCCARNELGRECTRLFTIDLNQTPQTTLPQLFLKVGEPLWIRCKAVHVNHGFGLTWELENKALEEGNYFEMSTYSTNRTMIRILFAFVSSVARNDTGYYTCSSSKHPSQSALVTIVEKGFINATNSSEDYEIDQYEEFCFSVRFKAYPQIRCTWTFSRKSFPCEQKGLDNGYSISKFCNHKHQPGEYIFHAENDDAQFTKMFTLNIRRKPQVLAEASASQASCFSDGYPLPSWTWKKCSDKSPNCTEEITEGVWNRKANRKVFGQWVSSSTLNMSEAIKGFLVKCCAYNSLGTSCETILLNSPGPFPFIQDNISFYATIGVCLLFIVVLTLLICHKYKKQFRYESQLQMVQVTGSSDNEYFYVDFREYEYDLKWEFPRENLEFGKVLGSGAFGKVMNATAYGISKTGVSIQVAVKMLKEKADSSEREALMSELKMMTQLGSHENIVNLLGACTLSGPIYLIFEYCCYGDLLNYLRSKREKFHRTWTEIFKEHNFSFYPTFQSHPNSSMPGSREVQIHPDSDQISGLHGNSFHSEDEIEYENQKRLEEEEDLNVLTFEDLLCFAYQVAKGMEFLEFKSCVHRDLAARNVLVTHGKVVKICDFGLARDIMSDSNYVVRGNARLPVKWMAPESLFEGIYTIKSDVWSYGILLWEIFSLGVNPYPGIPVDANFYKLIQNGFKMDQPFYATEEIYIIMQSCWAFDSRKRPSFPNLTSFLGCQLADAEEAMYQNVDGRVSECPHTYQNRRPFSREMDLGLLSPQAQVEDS
Description: Inhibition of FLT3 (unknown origin)

Data set [2] concerns the target Platelet-derived growth factor receptor alpha (Homo sapiens, UniProt P16234).
Description: Inhibition of PDGFR-alpha (unknown origin)
The target of data set [3] is Platelet-derived growth factor receptor beta (Homo sapiens, UniProt P09619).
Sequence of Platelet-derived growth factor receptor beta (P09619 whole entry): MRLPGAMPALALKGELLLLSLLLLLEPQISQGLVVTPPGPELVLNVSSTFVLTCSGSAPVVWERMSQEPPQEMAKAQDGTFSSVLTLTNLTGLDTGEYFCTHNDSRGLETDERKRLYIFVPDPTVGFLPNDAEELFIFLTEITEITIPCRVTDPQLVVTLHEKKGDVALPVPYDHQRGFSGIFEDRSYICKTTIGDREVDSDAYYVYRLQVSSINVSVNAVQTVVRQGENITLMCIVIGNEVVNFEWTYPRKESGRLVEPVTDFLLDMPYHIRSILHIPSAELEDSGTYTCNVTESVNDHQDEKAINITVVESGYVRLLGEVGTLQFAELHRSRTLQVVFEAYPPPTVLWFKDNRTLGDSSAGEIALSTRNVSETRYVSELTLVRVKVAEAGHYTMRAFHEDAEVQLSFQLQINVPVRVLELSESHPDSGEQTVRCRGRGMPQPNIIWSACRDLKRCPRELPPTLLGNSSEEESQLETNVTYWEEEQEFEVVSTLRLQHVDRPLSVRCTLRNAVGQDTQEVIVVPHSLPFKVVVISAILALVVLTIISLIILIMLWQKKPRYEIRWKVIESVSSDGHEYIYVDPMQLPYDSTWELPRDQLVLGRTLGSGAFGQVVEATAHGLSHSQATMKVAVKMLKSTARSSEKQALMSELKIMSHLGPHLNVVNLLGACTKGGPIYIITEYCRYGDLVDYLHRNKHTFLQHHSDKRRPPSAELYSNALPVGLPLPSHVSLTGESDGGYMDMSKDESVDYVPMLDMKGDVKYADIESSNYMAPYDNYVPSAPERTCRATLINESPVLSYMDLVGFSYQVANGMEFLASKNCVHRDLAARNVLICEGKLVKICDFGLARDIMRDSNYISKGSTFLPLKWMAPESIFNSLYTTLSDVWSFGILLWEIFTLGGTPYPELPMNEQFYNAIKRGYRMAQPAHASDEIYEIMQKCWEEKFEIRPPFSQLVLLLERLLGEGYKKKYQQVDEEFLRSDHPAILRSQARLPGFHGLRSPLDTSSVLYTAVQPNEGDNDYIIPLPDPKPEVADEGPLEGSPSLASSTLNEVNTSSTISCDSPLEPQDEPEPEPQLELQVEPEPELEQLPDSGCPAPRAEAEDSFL
Description: Inhibition of PDGFR-beta (unknown origin)
Data set [4] concerns the target Voltage-gated inwardly rectifying potassium channel KCNH2 (Homo sapiens, UniProt Q12809). Nature of the data set: Inhibition of hERG. The data set is classed as toxicity. In general terms: Block of hERG is tested as a sign of cardiac risk.
Data set [5] addresses Vascular endothelial growth factor receptor 2 (Homo sapiens, UniProt P35968). In words: Inhibition of KDR (unknown origin).
For another data set, the system named is Huh-7. Nature of the data set: Anti-proliferative activity against human Huh-7 cells.
The subject of the next data set is HepG2. In words: Anti-proliferative activity against human HepG2 cells.
In data set [6] the test system is Hep 3B2. Nature of the data set: Anti-proliferative activity against human Hep3B cells.
The next data set relates to HT-29. Nature of the data set: Anti-proliferative activity against human HT-29 cells.
The next data set has as its system HCT-116. In words: cells. Conditions: Homo sapiens.
Data set [7] in a line: Anti-proliferative activity against human KATO III cells.
A further data set relates to SNU-16. Nature of the data set: Anti-proliferative activity against human SNU-16 cells. The data set is classed as functional, cell-based.
In data set [8] the test system is Hep 3B2. Nature of the data set: Antitumor activity against human Hep3B cells xenografted in BALB/c mouse at 60 mg/kg, po qd treated for 10 days followed by discontinuation of administration and re-continuation on day 18 measured after 7 days relative to control. The following applies: read-out: TGI. (In xenograft studies the graft and the host belong to different species.)

Data set [9] can be described thus: Toxicity in BALB/c mouse xenografted with human Hep3B cells assessed as body weight loss at 60 mg/kg, po qd measured for 25 days. Type of data set: organism-based. The following applies: in vivo, 600 h, time 25 day.

Experimental findings from ChEMBL document CHEMBL6083222, “Discovery of novel, orally bioavailable phenylacetamide derivatives as multikinase inhibitors and in vivo efficacy study in hepatocellular carcinoma animal models” (Bioorg Med Chem Lett, 2024) are described below.

Sequence of Platelet-derived growth factor receptor alpha (P16234 whole entry): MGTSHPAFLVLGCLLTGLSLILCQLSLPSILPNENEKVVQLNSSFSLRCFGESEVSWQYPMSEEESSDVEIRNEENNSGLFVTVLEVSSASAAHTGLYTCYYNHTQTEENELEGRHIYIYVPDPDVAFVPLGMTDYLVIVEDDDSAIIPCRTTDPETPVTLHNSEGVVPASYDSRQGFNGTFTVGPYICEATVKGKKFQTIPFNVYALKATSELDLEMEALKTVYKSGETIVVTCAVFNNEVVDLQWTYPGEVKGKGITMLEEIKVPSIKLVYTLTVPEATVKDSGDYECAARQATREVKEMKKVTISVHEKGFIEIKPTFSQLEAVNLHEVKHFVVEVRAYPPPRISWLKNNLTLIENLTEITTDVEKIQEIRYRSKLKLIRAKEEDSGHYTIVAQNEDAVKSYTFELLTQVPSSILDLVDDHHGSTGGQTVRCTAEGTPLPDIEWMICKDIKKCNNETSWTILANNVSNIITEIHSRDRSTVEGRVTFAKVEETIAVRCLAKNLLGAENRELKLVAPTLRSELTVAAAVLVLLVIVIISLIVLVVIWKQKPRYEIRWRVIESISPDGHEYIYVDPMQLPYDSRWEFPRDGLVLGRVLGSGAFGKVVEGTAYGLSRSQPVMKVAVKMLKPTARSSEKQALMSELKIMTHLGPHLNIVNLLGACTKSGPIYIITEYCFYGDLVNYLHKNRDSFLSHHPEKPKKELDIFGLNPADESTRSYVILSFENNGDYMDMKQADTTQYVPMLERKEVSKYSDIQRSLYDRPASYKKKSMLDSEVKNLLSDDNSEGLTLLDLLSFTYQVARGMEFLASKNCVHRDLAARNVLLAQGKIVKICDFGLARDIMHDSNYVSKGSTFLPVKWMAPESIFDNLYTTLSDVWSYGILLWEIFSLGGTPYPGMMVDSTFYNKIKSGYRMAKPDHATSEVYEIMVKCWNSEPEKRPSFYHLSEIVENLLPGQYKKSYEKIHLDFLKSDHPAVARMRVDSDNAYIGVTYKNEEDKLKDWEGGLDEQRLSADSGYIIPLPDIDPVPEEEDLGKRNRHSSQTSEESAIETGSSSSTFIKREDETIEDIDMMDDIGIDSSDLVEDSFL
Sequence of Voltage-gated inwardly rectifying potassium channel KCNH2 (Q12809 whole entry): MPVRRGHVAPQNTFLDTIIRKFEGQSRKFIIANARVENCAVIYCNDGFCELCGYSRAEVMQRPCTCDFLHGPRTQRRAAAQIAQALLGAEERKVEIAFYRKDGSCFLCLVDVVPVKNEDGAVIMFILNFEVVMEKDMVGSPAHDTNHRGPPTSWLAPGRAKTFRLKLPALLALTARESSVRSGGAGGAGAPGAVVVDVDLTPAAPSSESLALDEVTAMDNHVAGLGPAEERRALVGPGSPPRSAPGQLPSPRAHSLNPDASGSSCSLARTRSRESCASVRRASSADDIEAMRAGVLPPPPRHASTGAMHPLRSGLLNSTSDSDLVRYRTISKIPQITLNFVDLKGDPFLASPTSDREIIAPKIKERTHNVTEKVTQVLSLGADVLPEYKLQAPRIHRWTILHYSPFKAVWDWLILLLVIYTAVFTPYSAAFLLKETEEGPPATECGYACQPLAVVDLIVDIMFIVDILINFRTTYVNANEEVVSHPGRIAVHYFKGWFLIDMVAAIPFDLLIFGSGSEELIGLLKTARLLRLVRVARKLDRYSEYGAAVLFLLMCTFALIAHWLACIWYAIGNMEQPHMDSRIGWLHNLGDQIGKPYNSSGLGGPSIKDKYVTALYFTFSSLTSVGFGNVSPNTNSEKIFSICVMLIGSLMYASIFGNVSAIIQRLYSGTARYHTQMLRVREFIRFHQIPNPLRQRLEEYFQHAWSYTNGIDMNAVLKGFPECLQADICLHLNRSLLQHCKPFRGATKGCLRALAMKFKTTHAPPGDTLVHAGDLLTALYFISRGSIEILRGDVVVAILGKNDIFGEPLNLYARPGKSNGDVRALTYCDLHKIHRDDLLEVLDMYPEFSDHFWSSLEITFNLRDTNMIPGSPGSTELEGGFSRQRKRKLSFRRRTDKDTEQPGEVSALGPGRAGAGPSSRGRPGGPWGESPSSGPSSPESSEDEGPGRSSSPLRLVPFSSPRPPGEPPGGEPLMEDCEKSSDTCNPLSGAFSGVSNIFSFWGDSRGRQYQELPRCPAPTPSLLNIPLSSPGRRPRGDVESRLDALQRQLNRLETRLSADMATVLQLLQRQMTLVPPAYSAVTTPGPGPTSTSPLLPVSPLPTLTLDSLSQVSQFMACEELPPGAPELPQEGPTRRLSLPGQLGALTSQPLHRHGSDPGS
Sequence of Vascular endothelial growth factor receptor 2 (P35968 whole entry): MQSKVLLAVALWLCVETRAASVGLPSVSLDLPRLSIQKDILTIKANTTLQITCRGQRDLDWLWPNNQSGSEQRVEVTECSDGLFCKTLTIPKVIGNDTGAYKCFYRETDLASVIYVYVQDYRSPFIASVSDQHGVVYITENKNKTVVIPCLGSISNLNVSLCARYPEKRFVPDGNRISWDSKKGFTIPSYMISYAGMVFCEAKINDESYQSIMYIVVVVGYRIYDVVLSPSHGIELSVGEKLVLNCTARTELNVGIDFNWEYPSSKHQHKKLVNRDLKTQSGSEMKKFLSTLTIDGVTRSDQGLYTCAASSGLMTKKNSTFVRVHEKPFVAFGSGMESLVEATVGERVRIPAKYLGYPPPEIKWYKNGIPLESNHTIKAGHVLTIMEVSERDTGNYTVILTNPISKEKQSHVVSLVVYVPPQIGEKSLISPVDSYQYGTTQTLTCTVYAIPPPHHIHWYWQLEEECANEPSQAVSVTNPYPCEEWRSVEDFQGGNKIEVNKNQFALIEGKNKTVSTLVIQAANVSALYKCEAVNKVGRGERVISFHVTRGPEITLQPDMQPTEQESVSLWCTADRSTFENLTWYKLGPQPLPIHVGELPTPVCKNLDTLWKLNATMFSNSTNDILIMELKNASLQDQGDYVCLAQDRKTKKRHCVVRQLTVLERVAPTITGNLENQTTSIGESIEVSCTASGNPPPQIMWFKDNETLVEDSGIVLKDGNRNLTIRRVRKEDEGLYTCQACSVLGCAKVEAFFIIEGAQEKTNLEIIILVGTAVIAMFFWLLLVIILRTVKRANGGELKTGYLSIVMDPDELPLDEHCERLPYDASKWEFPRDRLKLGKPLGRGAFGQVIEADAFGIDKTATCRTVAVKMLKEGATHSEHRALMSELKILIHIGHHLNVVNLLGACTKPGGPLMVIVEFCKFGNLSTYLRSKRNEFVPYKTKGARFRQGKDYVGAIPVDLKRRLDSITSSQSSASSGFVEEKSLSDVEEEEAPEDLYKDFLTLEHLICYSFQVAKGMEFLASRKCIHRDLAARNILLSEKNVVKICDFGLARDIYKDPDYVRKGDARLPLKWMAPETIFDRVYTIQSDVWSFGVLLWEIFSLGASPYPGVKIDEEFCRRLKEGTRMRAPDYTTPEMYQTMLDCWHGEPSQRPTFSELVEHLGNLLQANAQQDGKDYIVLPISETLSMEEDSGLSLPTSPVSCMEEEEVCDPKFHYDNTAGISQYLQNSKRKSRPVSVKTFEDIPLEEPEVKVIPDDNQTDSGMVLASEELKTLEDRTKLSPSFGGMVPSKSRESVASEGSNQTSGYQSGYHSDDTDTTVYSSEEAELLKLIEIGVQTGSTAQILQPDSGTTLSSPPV
Description for HCT-116: Anti-proliferative activity against human HCT-116 cells

By IC50 is commonly meant the concentration that inhibits the measured activity by half. Low values mean inhibition by little substance, high ones a need for much substance. For `CC(C)(C)c1cc(NC(=O)Cc2ccc(-n3cnc4cc(-c5cccnc5)ccc43)cc2)on1`, the IC50 worked out at 0.73 nM in [1], 0.28 nM in data set [2] and 1.3 nM in [3].
As for `CC(C)(C)c1cc(NC(=O)Cc2ccc(-n3cnc4cc(C5CCNCC5)ccc43)cc2)on1`, the results for the IC50 in [1], in [2] and in data set [3] were 22 nM, 11 nM and 12 nM, respectively.
For the compound `CC(C)(C)c1cc(NC(=O)Cc2ccc(-n3cnc4cc(-c5cn[nH]c5)ccc43)cc2)on1`, the IC50 in [4] was 26500 nM; in data set [1], 0.33 nM; in [2] it was 0.18 nM; in [3], 0.89 nM.
In turn, `CC(C)(C)OC(=O)Cn1cc(-c2ccc3c(c2)ncn3-c2ccc(CC(=O)Nc3cc(C(C)(C)C)no3)cc2)cn1` registered a half-inhibitory concentration (IC50) in data set [5] of 6.5 nM.
`Cn1cc(-c2ccc3c(c2)ncn3-c2ccc(CC(=O)Nc3cc(C(C)(C)C)no3)cc2)cn1`: the half-inhibitory concentration (IC50) was determined as 17900 nM in data set [4], 0.59 nM in [1], 0.22 nM in [2] and 1.15 nM in [3].
With `COc1cc2nccc(Oc3ccc(NC(=O)C4(C(=O)Nc5ccc(F)cc5)CC4)cc3)c2cc1OC` [CABOZANTINIB], the 50% inhibitory concentration (IC50) in the data set on Huh-7 was 3660 nM; in the data set with HepG2, 3660 nM; in the data set on Hep 3B2 [6], 6500 nM; in the data set on HT-29 it was 5840 nM; in the data set with HCT-116 it was 7260 nM.
Consider `CNC(=O)c1cc(Oc2ccc(NC(=O)Nc3ccc(Cl)c(C(F)(F)F)c3)cc2)ccn1` [SORAFENIB], for which the IC50 with Hep 3B2 [6] is 3330 nM; with HT-29, 5350 nM; in data set [7], 569 nM; with SNU-16 it was 954 nM; with HCT-116, 4430 nM. Besides, the inhibition in vivo at 60 mg/kg with Hep 3B2 [8] was 34%. In data set [9], the Activity is recorded as ~ 16.32%.
